Results from patent US20050101595A1, “N-containing cycloalkyl-substituted amino-thiazole derivatives and pharmaceutical compositions for inhibiting cell proliferation and methods for their use” (PFIZER INC., priority 2003, published 2005).
Where a name gives a salt, the structure may show the parent alone. Read-outs that look alike come from different tables or passages of the source.

Columns and labels:
[1] = biological target: human CDK4 and genetically truncated (1-264) cyclin D3 (Homo sapiens, UniProt P11802); experiment: Inhibition of CDK4/Cyclin D Retinoblastoma Kinase Activity; format: biochemical; conditions: for Ki: apparent Ki, CDK4/truncated cyclin D3, Rb fragment substrate, 25 μM ATP
In short: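 Apparent Ki values come from competitive or competitive tight-binding inhibition fits of background-corrected 32P/33P incorporation into His-tagged Rb fragment (386-928), captured on nitrocellulose. Reaction: 5 nM insect-cell-expressed human CDK4 with cyclin D3 (1-264), 25 μM ATP, pH 7.4 HEPES, 2% DMSO, 30° C., 20 min, extended to 60 min for tight-binding inhibitors.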

HCT-116 cell line = experiment: Inhibition of cell growth, tetrazolium salt (MTT) assay; format: cell-based; conditions: for HCT-116 % Inhibition at 0.25 μM: 0.25 μM compound; for IC50: Homo sapiens, HCT-116, 120 h, MTT, three to five days, read-out: HCT-116 IC50
In short: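 Growth inhibition by MTT reduction at 540 nm (0.2 mg/mL, 4 h at 37° C, formazan dissolved in DMSO), normalized to cells given only 0.5% v/v DMSO. HCT-116 cultures in McCoy's 5A were dosed 4 h post-plating and kept three to five days at 37° C, 5% CO2.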

CDK2/Cyclin A = CDK2/Cyclin A (Homo sapiens, UniProt P24941); experiment: Inhibition of CDK2/Cyclin A Retinoblastoma Kinase Activity; format: biochemical; conditions: for Ki: apparent Ki, CDK2/proteolyzed cyclin A, Rb fragment substrate, 25 μM ATP
In short: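 Radiometric filter-binding readout of phosphate transfer to an Rb substrate fragment by purified CDK2/truncated cyclin A at 10 or 19 nM. Run at pH 7.4 with 25 μM ATP, 30 °C, 60–75 min, linear rates; background without enzyme subtracted, Ki from competitive-inhibition models.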

[2] = 0.1 μM compound, HCT-116, Table 3

human CDK4 and genetically truncated (1-264) cyclin D3, sequence (P11802 whole entry, the tested form may be a part): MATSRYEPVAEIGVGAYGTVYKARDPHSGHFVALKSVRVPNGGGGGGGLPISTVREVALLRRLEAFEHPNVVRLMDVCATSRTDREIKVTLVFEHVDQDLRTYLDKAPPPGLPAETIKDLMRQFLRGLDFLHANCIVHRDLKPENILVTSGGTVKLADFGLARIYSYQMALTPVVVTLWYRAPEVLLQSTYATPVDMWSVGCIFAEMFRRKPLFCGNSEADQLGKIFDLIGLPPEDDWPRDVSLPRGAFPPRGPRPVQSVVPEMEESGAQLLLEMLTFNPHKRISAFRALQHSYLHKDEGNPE
human CDK4 and genetically truncated (1-264) cyclin D3, sequence (P30281 1-264 partner): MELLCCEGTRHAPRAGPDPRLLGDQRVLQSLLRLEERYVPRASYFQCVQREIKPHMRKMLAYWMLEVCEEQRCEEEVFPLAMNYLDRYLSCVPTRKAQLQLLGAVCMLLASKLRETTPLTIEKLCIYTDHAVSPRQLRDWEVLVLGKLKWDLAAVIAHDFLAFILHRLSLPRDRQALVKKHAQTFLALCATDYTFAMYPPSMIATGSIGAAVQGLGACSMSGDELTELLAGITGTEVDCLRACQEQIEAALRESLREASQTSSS

SMILES: Nc1nc(NC2CCN(C(=O)c3cc([N+](=O)[O-])cc([N+](=O)[O-])c3)CC2)sc1C(=O)c1c(F)cccc1F [Example Q70]
- CDK4 % Inhibition at 0.03 μM ([1]; 0.03 μM compound, Table 4): 38%
- HCT-116 % Inhibition at 0.1 μM (HCT-116 cell line; 0.1 μM compound, HCT-116, Table 4): 5%
- HCT-116 % Inhibition at 0.25 μM (HCT-116 cell line; HCT-116, Table 4): 26%
- CDK2 % Inhibition at 0.03 μM (CDK2/Cyclin A; 0.03 μM compound, Table 4): 19%

SMILES: Nc1nc(NC2CCN(C(=O)C3CC3)CC2)sc1C(=O)c1c(F)cccc1F [Example R89]
- CDK4 % Inhibition at 0.03 μM ([1]; at 0.03 μM): 5%
- HCT-116 % Inhibition at 0.1 μM (HCT-116 cell line; HCT-116 cells, at 0.1 μM): 0%
- HCT-116 5 Inhibition at 0.25 μM (HCT-116 cell line; HCT-116 cells): 46
- CDK2 % Inhibition at 0.03 μM (CDK2/Cyclin A; at 0.03 μM): 3%

SMILES: CCCSc1ncccc1C(=O)N1CCC(Nc2nc(N)c(C(=O)c3c(F)cccc3F)s2)CC1 [Example R28]
- CDK4 % Inhibition at 0.03 μM ([1]; at 0.03 μM): 66%
- HCT-116 % Inhibition at 0.1 μM (HCT-116 cell line; HCT-116 cells, at 0.1 μM): 0%
- HCT-116 5 Inhibition at 0.25 μM (HCT-116 cell line; HCT-116 cells): 41
- CDK2 % Inhibition at 0.03 μM (CDK2/Cyclin A; at 0.03 μM): 58%

SMILES: Cn1cc(S(=O)(=O)N2CCC(Nc3nc(N)c(C(=O)c4c(F)cccc4F)s3)CC2)nc1Br [Example F48, {4-Amino-2-[1-(2-bromo-1-methyl-1H-imidazole-4-sulfonyl)-piperidin-4-ylamino]-thiazol-5-yl}-(2,6-difluoro-phenyl)-methanone]
- inhibition at 0.05 µM [1]: 37%
- IC50 (HCT-116 cell line; first HCT-116 column (c4)): 3200 nM
- IC50 (HCT-116 cell line; second HCT-116 column (c5)): 5000 nM
- Ki (CDK2/Cyclin A): 7.6 nM

SMILES: Nc1nc(NC2CCN(S(=O)(=O)c3ccc(Sc4ccccn4)nc3)CC2)sc1C(=O)c1c(F)cccc1F [Example L2, 1-(4-Amino-2-{1-[6-(pyridin-2-ylsulfanyl)-pyridine-3-sulfonyl]-piperidin-4-ylamino}-thiazol-5-yl)-1-(2,6-difluoro-phenyl)-methanone Dihydrochloride.]
- Ki [1]: 2.7 nM
- IC50 (HCT-116 cell line; first HCT-116 column (c4)): > 500 nM
- IC50 (HCT-116 cell line; second HCT-116 column (c5)): > 500 nM
- Ki (CDK2/Cyclin A): 1.5 nM

SMILES: Cc1ccc(C(=O)N2CCC(Nc3nc(N)c(C(=O)c4c(F)cccc4F)s3)CC2)c(C)c1 [Example R126]
- CDK4 % Inhibition at 0.03 μM ([1]; at 0.03 μM): 57%
- HCT-116 % Inhibition at 0.1 μM (HCT-116 cell line; HCT-116 cells, at 0.1 μM): 0%
- HCT-116 5 Inhibition at 0.25 μM (HCT-116 cell line; HCT-116 cells): 33
- CDK2 % Inhibition at 0.03 μM (CDK2/Cyclin A; at 0.03 μM): 43%

SMILES: Nc1nc(NC2CCN(S(=O)(=O)c3ccc(Cl)s3)CC2)sc1C(=O)c1c(F)cccc1F [Example P36]
- CDK4 % Inhibition at 0.03 μM ([1]; 0.03 μM compound, Table 3): 66%
- HCT-116 % Inhibition at 0.1 μM (HCT-116 cell line; [2]): 8%
- HCT-116 % Inhibition at 0.25 μM (HCT-116 cell line; HCT-116, Table 3): 26%
- CDK2 % Inhibition at 0.03 μM (CDK2/Cyclin A; 0.03 μM compound, Table 3): 54%

SMILES: COC(=O)CC(=O)N1CCC(Nc2nc(N)c(C(=O)c3c(F)cccc3F)s2)CC1 [Example R2]
- CDK4 % Inhibition at 0.03 μM ([1]; at 0.03 μM): 13%
- HCT-116 % Inhibition at 0.1 μM (HCT-116 cell line; HCT-116 cells, at 0.1 μM): 1%
- HCT-116 5 Inhibition at 0.25 μM (HCT-116 cell line; HCT-116 cells): 49
- CDK2 % Inhibition at 0.03 μM (CDK2/Cyclin A; at 0.03 μM): −24%

SMILES: COC(=O)c1sccc1S(=O)(=O)N1CCC(Nc2nc(N)c(C(=O)c3c(F)cccc3F)s2)CC1 [Example F10, 3-{4-[4-Amino-5-(2,6-difluoro-benzoyl)-thiazol-2-ylamino]-piperidine-1-sulfonyl}-thiophene-2-carboxylic acid methyl ester]
- Ki [1]: 5.6 nM
- IC50 (HCT-116 cell line; first HCT-116 column (c4)): 280 nM
- IC50 (HCT-116 cell line; second HCT-116 column (c5)): < 5000 nM
- Ki (CDK2/Cyclin A): 7.9 nM

SMILES: CS(=O)(=O)N1CCCC(Nc2nc(N)c(C(=O)c3c(F)cccc3F)s2)C1 (stereo not shown) [Example F37, [4-Amino-2-(1-methanesulfonyl-piperidin-3-ylamino)-thiazol-5-yl]-(2,6-difluoro-phenyl)-methanone]
- Ki [1]: 1100 nM
- IC50 (HCT-116 cell line; first HCT-116 column (c4)): 700 nM
- IC50 (HCT-116 cell line; second HCT-116 column (c5)): 1500 nM
- Ki (CDK2/Cyclin A): 430 nM

SMILES: Nc1nc(NC2CCN(Cc3ccncc3)CC2)sc1C(=O)c1c(F)cccc1F [Example M2, 1-[4-Amino-2-(1-pyridin-4-ylmethyl-piperidin-4-ylamino)-thiazol-5-yl]-1-(2,6-difluoro-phenyl)-methanone.]
- Ki [1]: 33.5 nM
- IC50 (HCT-116 cell line; first HCT-116 column (c4)): 2100 nM
- IC50 (HCT-116 cell line; second HCT-116 column (c5)): 5000 nM
- Ki (CDK2/Cyclin A): 433 nM

SMILES: CC(C)(C)c1ccc(S(=O)(=O)N2CCC(Nc3nc(N)c(C(=O)c4c(F)cccc4F)s3)CC2)cc1 [Example P22]
- CDK4 % Inhibition at 0.03 μM ([1]; 0.03 μM compound, Table 3): 38%
- HCT-116 % Inhibition at 0.1 μM (HCT-116 cell line; [2]): 27%
- HCT-116 % Inhibition at 0.25 μM (HCT-116 cell line; HCT-116, Table 3): 31%
- CDK2 % Inhibition at 0.03 μM (CDK2/Cyclin A; 0.03 μM compound, Table 3): 29%

SMILES: CN1CCCC(COc2ccc(S(=O)(=O)N3CCC(Nc4nc(N)c(C(=O)c5c(F)cccc5F)s4)CC3)cn2)C1 (stereo not shown) [Example H7, 1-[4-Amino-2-{1-[6-(1-methyl-piperidin-3RS-ylmethoxy)-pyridine-3-sulfonyl]-piperidin-4-ylamino}-thiazol-5-yl)-1-(2,6-difluoro-phenyl)-methanone Trifluoroacetic Acid Salt]
- Ki [1]: 0.21 nM
- IC50 (HCT-116 cell line; first HCT-116 column (c4)): 40 nM
- IC50 (HCT-116 cell line; second HCT-116 column (c5)): 250 nM
- Ki (CDK2/Cyclin A): 0.8 nM

SMILES: Nc1nc(NC2CCN(C(=O)Nc3cc(Cl)nc(Cl)c3)CC2)sc1C(=O)c1c(F)cccc1F [Example O64]
- CDK4 % Inhibition at 0.03 μM ([1]; 0.03 μM compound, Table 2): 7%
- HCT-116 % Inhibition at 0.25 μM (HCT-116 cell line; HCT-116, Table 2): 37%
- CDK2 % Inhibition At 0.03 μM (CDK2/Cyclin A; 0.03 μM compound, Table 2): 32%
